The values below come from patent publication US9999622B2, “Pyrazolothiazole compound and medicine comprising same” (NIPPON SHINYAKU CO., LTD., priority 2014, dated 2018).

Type in all cases: biochemical
In one assay the target is T1, JAK1 (Homo sapiens, UniProt P23458).
T1 construct: purchased Carna Biosciences, Inc
Briefly: JAK tyrosine kinase inhibitory activity in the presence of 1 mM ATP (ELISA), JAK1. In outline: (§1)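 Recombinant kinase (7.5 nM JAK1; 0.75 nM JAK2, JAK3 working dilutions) reacted 1 h at 30 °C with 1 mM ATP in Tris-HCl pH 7.5, Tween-20, DTT, on streptavidin plates. Phosphotyrosine detected by HRP anti-pTyr antibody ELISA, TMB absorbance at 450 nm; duplicate wells, DMSO as negative control.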

A further assay concerns the target T2, JAK3 (Homo sapiens, UniProt P52333).
T2 construct: purchased Carna Biosciences, Inc
T2 sequence (P52333 1-1124): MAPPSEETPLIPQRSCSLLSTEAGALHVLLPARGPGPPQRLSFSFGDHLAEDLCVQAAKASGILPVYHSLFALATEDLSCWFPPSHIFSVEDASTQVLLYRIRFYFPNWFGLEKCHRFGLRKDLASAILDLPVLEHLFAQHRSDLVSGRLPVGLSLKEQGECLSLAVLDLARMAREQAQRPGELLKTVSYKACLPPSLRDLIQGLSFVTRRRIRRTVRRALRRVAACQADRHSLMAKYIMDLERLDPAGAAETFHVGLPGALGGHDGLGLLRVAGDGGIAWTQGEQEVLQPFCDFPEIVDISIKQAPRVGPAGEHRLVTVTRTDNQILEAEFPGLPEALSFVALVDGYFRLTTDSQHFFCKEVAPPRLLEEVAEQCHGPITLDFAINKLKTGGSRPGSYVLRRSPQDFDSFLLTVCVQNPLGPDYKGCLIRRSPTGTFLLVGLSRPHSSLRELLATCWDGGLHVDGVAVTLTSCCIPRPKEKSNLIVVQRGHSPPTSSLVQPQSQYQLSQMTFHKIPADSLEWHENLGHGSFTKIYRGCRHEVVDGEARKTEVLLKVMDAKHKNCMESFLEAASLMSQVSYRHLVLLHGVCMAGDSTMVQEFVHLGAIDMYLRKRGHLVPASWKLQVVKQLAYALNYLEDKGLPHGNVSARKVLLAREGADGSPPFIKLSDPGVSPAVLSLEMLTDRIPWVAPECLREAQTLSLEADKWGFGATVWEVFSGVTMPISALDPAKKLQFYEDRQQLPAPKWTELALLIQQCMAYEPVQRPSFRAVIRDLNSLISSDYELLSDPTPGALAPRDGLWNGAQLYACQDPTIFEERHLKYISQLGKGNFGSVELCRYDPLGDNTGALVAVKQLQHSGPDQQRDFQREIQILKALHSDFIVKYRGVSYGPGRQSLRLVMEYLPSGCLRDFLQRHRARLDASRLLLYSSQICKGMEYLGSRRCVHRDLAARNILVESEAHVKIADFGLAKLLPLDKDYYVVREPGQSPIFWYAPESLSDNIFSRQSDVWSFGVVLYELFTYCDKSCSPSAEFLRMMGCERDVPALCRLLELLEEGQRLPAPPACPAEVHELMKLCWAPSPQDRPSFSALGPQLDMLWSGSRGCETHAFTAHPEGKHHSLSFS
Briefly: JAK tyrosine kinase inhibitory activity in the presence of 1 mM ATP (ELISA), JAK3. In outline:
as §1

The next assay deals with T3, JAK2 (Homo sapiens, UniProt O60674).
T3 construct: purchased Carna Biosciences, Inc
Briefly: JAK tyrosine kinase inhibitory activity in the presence of 1 mM ATP (ELISA), JAK2. In outline:
as §1
A general note: An ELISA detects its analyte on a solid surface through an enzyme-linked reagent.

Where a name gives a salt, the structure may show the parent alone.

T3 sequence (O60674 whole entry): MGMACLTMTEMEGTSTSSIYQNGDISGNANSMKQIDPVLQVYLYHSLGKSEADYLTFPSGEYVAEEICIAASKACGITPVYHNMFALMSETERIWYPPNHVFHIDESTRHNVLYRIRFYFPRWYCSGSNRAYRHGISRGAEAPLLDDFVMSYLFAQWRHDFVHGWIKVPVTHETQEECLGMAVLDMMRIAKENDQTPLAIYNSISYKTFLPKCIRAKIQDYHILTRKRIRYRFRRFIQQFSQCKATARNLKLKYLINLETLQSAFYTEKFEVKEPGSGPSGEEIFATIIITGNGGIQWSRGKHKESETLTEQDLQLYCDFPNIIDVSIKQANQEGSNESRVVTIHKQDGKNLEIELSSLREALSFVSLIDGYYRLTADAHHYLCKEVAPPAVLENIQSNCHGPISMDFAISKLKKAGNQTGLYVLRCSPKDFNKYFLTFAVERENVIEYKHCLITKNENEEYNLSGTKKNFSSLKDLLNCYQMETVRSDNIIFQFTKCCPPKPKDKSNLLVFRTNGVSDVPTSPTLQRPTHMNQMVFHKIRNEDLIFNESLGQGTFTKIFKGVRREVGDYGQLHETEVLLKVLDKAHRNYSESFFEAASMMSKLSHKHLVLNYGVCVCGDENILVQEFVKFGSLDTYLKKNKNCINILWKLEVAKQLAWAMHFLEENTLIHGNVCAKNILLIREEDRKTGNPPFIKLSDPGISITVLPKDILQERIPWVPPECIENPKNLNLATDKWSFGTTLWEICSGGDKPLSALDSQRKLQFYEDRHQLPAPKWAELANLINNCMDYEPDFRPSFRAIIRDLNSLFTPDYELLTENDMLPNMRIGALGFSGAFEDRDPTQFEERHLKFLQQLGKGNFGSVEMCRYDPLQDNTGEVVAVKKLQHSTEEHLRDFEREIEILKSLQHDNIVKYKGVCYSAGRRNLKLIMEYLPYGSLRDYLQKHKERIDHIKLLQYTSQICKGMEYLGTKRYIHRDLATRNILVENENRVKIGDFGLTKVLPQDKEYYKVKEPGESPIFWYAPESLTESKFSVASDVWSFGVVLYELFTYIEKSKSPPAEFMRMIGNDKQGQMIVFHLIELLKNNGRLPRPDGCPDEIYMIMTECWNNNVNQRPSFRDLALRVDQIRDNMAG
T1 sequence (P23458 whole entry): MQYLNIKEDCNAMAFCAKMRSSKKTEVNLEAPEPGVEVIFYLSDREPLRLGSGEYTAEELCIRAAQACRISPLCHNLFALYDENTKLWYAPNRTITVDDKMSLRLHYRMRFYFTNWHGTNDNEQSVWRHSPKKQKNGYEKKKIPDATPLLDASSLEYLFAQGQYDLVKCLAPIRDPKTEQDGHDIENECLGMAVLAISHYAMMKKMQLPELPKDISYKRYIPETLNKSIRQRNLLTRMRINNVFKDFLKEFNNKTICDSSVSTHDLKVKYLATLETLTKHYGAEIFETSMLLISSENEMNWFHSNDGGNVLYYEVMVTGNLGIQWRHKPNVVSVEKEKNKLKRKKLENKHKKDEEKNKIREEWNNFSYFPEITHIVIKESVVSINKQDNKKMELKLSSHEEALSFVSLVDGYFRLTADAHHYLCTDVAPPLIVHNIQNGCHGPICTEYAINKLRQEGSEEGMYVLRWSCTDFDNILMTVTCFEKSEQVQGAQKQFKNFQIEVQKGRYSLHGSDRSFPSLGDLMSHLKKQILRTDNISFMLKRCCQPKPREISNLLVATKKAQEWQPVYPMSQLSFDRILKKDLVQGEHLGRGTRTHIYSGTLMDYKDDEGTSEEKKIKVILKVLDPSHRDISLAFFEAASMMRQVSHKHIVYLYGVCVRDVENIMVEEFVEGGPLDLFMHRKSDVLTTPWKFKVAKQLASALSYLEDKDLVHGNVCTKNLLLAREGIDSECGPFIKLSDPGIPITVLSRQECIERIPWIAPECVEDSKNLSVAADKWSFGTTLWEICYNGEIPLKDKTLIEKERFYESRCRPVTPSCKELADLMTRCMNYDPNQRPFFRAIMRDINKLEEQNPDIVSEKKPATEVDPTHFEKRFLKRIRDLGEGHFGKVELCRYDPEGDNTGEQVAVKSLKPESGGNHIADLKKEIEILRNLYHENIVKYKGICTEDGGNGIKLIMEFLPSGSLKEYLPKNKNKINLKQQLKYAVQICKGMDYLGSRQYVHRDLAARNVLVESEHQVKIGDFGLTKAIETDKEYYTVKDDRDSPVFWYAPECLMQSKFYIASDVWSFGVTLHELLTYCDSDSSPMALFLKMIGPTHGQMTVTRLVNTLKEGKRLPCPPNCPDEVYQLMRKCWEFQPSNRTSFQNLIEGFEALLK

By IC50 is commonly meant the concentration at which inhibition is half-maximal. Consider `C[C@@H](Nc1cc(C(=O)N2CCC(NC(=O)OCC(F)(F)F)CC2)nc(-c2cnn3ccsc23)n1)C1CC1` [Example 103, 2,2,2-Trifluoroethyl (1-{[6-{[(1R)-1-cyclopropylethyl]amino}-2-(pyrazolo[5,1-b][1,3]thiazol 7-yl)pyrimidin-4-yl]carbonyl}piperidin-4-yl)carbamate], for which the IC50 on JAK1 stood at 140 nM; on JAK3, 5900 nM; on JAK2, 2400 nM.
The like results for `C[C@@H](Nc1cc(C(=O)N2CCC(NC(=O)OCC(F)(F)F)CC2)nc(-c2cnn3ccsc23)n1)C(C)(C)C` [Example 104, 2,2,2-Trifluoroethyl (1-{[6-{[(2R)-3,3-dimethylbutan-2-yl]amino}-2-(pyrazolo[5,1-b][1,3]thiazol-7-yl)pyrimidin-4-yl]carbonyl}piperidin-4-yl)carbamate] were, in that order, 200 nM, 3400 nM and 3000 nM.
For `CCC(CC)Nc1cc(C(=O)N2CCC(NC(=O)COC)CC2)nc(-c2cnn3ccsc23)n1` [Example 106, 2-Methoxy-N-(1-{[6-(pentan-3-ylamino)-2-(pyrazolo[5,1-b][1,3]thiazol-7-yl)pyrimidin-4-yl]carbonyl}piperidin-4-yl)acetamide], the half-inhibitory concentration (IC50) on JAK1 stood at 600 nM; at JAK3, 2800 nM; at JAK2, 1300 nM.
The matching figures for `CCC(CC)COc1cc(C(=O)N2CCC(NC(=O)C3CC3)CC2)nc(-c2cnn3ccsc23)n1` [Example 107, N-(1-{[6-(2-Ethylbutoxy)-2-(pyrazolo[5,1-b][1,3]thiazol-7-yl)pyrimidin-4-yl]carbonyl}piperidin-4-yl)cyclopropanecarboxamide]: 200 nM, 1600 nM and 3500 nM.
The matching figures for `CCC(CC)Oc1cc(C(=O)N2CCC(NC(=O)OC)CC2)nc(-c2cnn3ccsc23)n1` [Example 108, Methyl (1-{[6-(pentan-3-yloxy)-2-(pyrazolo[5,1-b][1,3]thiazol-7-yl)pyrimidin-4-yl]carbonyl}piperidin-4-yl)carbamate]: 200 nM, more than 10000 nM and 2500 nM.
With `CCC(CC)Nc1cc(C(=O)N2CCC(NC(=O)OC)CC2)nc(-c2cnn3ccsc23)n1` [Example 109, Methyl (1-{[6-(pentan-3-ylamino)-2-(pyrazolo[5,1-b][1,3]thiazol-7-yl)pyrimidin-4-yl]carbonyl}piperidin-4-yl)carbamate], the concentration for half-maximal inhibition (IC50) at JAK1 is 190 nM; at JAK3, 2400 nM; at JAK2, 1800 nM.
The like results for `CCC(CC)CNc1cc(C(=O)N2CCC(NC(=O)C3CC3)CC2)nc(-c2cnn3ccsc23)n1` [Example 110, N-[1-({6-[(2-Ethylbutyl)amino]-2-(pyrazolo[5,1-b][1,3]thiazol-7-yl)pyrimidin-4-yl}carbonyl)piperidin-4-yl]cyclopropanecarboxamide] were, in that order, 78 nM, more than 10000 nM and 880 nM.
The like results for `CCC(CC)Oc1cc(C(=O)N2CCC(NC(=O)C3CC3)CC2)nc(-c2cnn3ccsc23)n1` [Example 111, N-(1-{[6-(Pentan-3-yloxy)-2-(pyrazolo[5,1-b][1,3]thiazol-7-yl)pyrimidin-4-yl]carbonyl}piperidin-4-yl)cyclopropanecarboxamide] were, in that order, 120 nM, more than 10000 nM and 2400 nM.
The like results for `CCC(CC)N(C)c1cc(C(=O)N2CCC(NC(=O)OC)CC2)nc(-c2cnn3ccsc23)n1` [Example 112, Methyl [1-({6-[methyl(pentan-3-yl)amino]-2-(pyrazolo[5,1-b][1,3]thiazol-7-yl)pyrimidin-4-yl}carbonyl)piperidin-4-yl]carbamate] were, in that order, 350 nM, 2900 nM and 3500 nM.
With `CCC(=O)NC1CCN(C(=O)c2cc(OCC(CC)CC)nc(-c3cnn4ccsc34)n2)CC1` [Example 114, N-(1-{[6-(2-Ethylbutoxy)-2-(pyrazolo[5,1-b][1,3]thiazol-7-yl)pyrimidin-4-yl]carbonyl}piperidin-4-yl)propanamide], the 50% inhibitory concentration (IC50) on JAK1 is 360 nM; at JAK3 it was 2700 nM; at JAK2, 1200 nM.
The like results for `CCC(=O)NC1CCN(C(=O)c2cc(N(C)C(CC)CC)nc(-c3cnn4ccsc34)n2)CC1` [Example 116, N-[1-({6-[Methyl(pentan-3-yl)amino]-2-(pyrazolo[5,1-b][1,3]thiazol-7-yl)pyrimidin-4-yl}carbonyl)piperidin-4-yl]propanamide] were, in that order, 210 nM, 3800 nM and 1900 nM.
The matching figures for `N#CC1(Nc2cc(C(=O)N3CCC(O)CC3)nc(-c3cnn4ccsc34)n2)CC1` [Example 117, 1-({6-[(4-Hydroxypiperidin-1-yl)carbonyl]-2-(pyrazolo[5,1-b][1,3]thiazol-7-yl)pyrimidin-4-yl}amino)cyclopropanecarbonitrile hydrochloride]: 1400 nM, 5700 nM and more than 10000 nM.
The matching figures for `CCC(=O)NC1CCN(C(=O)c2cc(NCC(C)(C)OC)nc(-c3cnn4ccsc34)n2)CC1` [Example 119, N-[1-({6-[(2-Methoxy-2-methylpropyl)amino]-2-(pyrazolo[5,1-b][1,3]thiazol-7-yl)pyrimidin-4-yl}carbonyl)piperidin-4-yl]propanamide]: 670 nM, more than 10000 nM and 4200 nM.
Consider `CCC(CC)N(C)c1cc(C(=O)N2CCC(O)CC2)nc(-c2cnn3ccsc23)n1` [Example 120, (4-Hydroxypiperidin-1-yl){6-[methyl(pentan-3-yl)amino]-2-(pyrazolo[5,1-b][1,3]thiazol-7-yl)pyrimidin-4-yl}methanone hydrochloride], for which the half-inhibitory concentration (IC50) came to 870 nM at JAK1, 3400 nM at JAK3 and 3000 nM at JAK2.
For `CC(C)[C@H](C)Nc1cc(C(=O)N2CCC(NC(=O)C3CC3)CC2)nc(-c2cnn3ccsc23)n1` [Example 123, N-(1-{[6-{[(2S)-3-Methylbutan-2-yl]amino}-2-(pyrazolo[5,1-b][1,3]thiazol-7-yl)pyrimidin-4-yl]carbonyl}piperidin-4-yl)cyclopropanecarboxamide], the half-maximal inhibitory concentration (IC50) amounted to 260 nM at JAK1, 1600 nM on JAK3 and 1400 nM on JAK2.
Regarding `CCC(CC)Nc1cc(C(=O)N2CCC(NC(=O)C3CC3)CC2)nc(-c2cnn3ccsc23)n1` [Example 124, N-(1-{[6-(Pentan-3-ylamino)-2-(pyrazolo[5,1-b][1,3]thiazol-7-yl)pyrimidin-4-yl]carbonyl}piperidin-4-yl)cyclopropanecarboxamide], the concentration for half-maximal inhibition (IC50) was 220 nM at JAK1, 2200 nM on JAK3 and 1700 nM at JAK2.
The matching figures for `CCC(=O)NC1CCN(C(=O)c2cc(NC3(C)CC3)nc(-c3cnn4ccsc34)n2)CC1` [Example 128, N-[1-({6-[(1-Methylcyclopropyl)amino]-2-(pyrazolo[5,1-b][1,3]thiazol-7-yl)pyrimidin-4-yl}carbonyl)piperidin-4-yl]propanamide]: 760 nM, more than 10000 nM and 8500 nM.
The matching figures for `CCC(=O)NC1CCN(C(=O)c2cc(N[C@@H](C)CC)nc(-c3cnn4ccsc34)n2)CC1` [Example 131, N-[1-({6-[(2S)-Butan-2-ylamino]-2-(pyrazolo[5,1-b][1,3]thiazol-7-yl)pyrimidin-4-yl}carbonyl)piperidin-4-yl]propanamide]: 310 nM, 4700 nM and 2200 nM.
The like results for `COC(=O)NC1CCN(C(=O)c2cc(N(C)C(C)(C)C)nc(-c3cnn4ccsc34)n2)CC1` [Example 132, Methyl [1-({6-[tert-butyl(methyl)amino]-2-(pyrazolo[5,1-b][1,3]thiazol-7-yl)pyrimidin-4-yl}carbonyl)piperidin-4-yl]carbamate hydrochloride] were, in that order, 790 nM, more than 10000 nM and more than 10000 nM.
